From patent US9556237B2 (priority 2012, dated 2017) come the findings set out here.

This series has as its system Vero E6 cells.

Peptide text beside a SMILES is read from it.

In the case of `CSCC[C@H](N)C(=O)N[C@@H](Cc1ccccc1)C(=O)N[C@@H](CC(C)C)C(=O)NCC(=O)N[C@@H](Cc1c[nH]c2ccccc12)C(=O)N[C@@H](CO)C(=O)N[C@@H](Cc1ccccc1)C(=O)N[C@@H](CC(=O)O)C(=O)N[C@@H](Cc1ccccc1)C(=O)NCC(=O)N[C@@H](CO)C(=O)N[C@@H](CC(C)C)C(=O)N[C@@H](Cc1c[nH]c2ccccc12)C(=O)NCC(=O)N[C@@H](CC(N)=O)C(=O)N[C@@H](CCCCN)C(=O)N1CCC[C@H]1C(=O)N[C@@H](Cc1c[nH]c2ccccc12)C(=O)N[C@@H](Cc1ccccc1)C(=O)O` [RVFV-6sc, MFLGWSFDFGSLWGNKPWF, reference compound] (H-MFLGWSFDFGSLWGNKPWF-OH), the “impact on cell proliferation (MTT assay)” value is “little negative impact on cell proliferation”.
